# Source: PMC12186697, “HypoxyStat, a small-molecule form of hypoxia therapy that increases oxygen-hemoglobin affinity” (Cell, 2025)
# Columns and labels:
# [1] = test system: 25+ potential off-targets; assay: Reaction Bio InVEST off-target panel; conditions: duplicate; significance = 50% or greater inhibition in both replicates
# Procedure: This assay utilizes colorimetry to monitor the activity of acetylcholinesterase (AChE). Enzyme activity is measured by the conversion of acetylthiocholine to thiocholine, which is detected through an enhanced Ellman’s reaction. In each well, 20 μL of Assay Buffer (75.4 mM Na2HPO4, 24.6 mM NaH2PO4, pH 7.5) was added to wells designated as background/control (no enzyme). Subsequently, 20 μL of 0.2 U/mL AChE was added to the remaining wells. The reaction mixture was incubated at room temperature for 15 minutes on a shaker to allow for enzyme and drug interaction. To initiate the improved Ellman’s reaction, 30 μL of buffer containing 650 μM DTNB and 650 μM acetylthiocholine was added to each well. The color intensity, which is proportional to enzyme activity, was measured at 412 nm using an Envision 2105 plate reader.
# The peroxidase activity is measured colorimetrically by monitoring the appearance of oxidized TMPD at 590 nm. […] Absorbance was then measured at 590 nm using an Envision 2105 plate reader (Revvity).
# This assay uses fluorescence polarization to monitor binding to the hERG channel. […] Fluorescence polarization was measured at Ex/Em = 531 nm FP/595 nm P & S, and mP values were calculated.
# The ADP-Glo™ assay is a luminescent method used to monitor ADP-producing biochemical reactions. […] Luminescence was then measured. […]
# [2] = biological target: T1, hemoglobin (Hb) in human red blood cells (Homo sapiens, UniProt P69905); assay: Oxy-hemoglobin dissociation curve (Hemox Analyzer), p50; type: biochemical
# T1 construct: incubated for at least one hour at 37C with whole blood before Hemox analysis; endogenous in cells; host or cells: human red blood cells / whole blood
# Procedure: One of the most extensively studied compounds for sickle cell anemia is GBT-440 (Voxelotor) (Figure 1B).[25] The extent of left-shifting can be assessed by determining the p50 or the partial pressure of oxygen at which half of the total Hb pool is bound to oxygen. We incubated human red blood cells with GBT-440 and observed a ~75% decrease in p50 (from ~28 to ~7 mmHg), consistent with previously reported values (Figure 1D). Experiments were performed using a HemOx analyzer that monitors oxygen saturation via Hb absorbance across a range of dissolved oxygen tensions. Upon further review of the sickle cell anemia literature, we found another compound, hereafter termed HypoxyStat (Figure 1B), which appeared to have a similar p50 as GBT-440.[26] We confirmed that HypoxyStat induced an ~82% decrease in p50 (Figure 1D).
# Oxy-hemoglobin dissociation analysis was performed by the UCSF RBC laboratory using the TCS Hemox Analyzer (TCS Medical Products Company, Huntington Valley, PA). Initial pO2 is set to 160 mmHg. Hemoglobin is fully oxygenated under these conditions (HbO% =100). Replacement of air with nitrogen lowers pO2 and is measured by Clark electrode along with the change in the absorbance spectrum of hemoglobin. At a pO2 of 0 mmHg, hemoglobin is fully deoxygenated (HbO% =0). The relation between pO2 and HbO% is plotted, and the pO2 at which HbO% = 50% is defined as P50. The typical sigmoid de-oxygenation curve of normal blood with a P50 of 26–28 mmHg is used as a control for incubation conditions and to ensure proper function of the Hemox analyzer. For left-shifter comparison, the compounds were dissolved in HEPES buffered saline and then incubated for at least one hour at 37C with whole blood before Hemox analysis. A control of whole blood incubated with vehicle is also reported.
# Ndufs4 KO mouse = Ndufs4 KO mouse model of Leigh syndrome (survival, body weight, temperature, behavior, neuropathology); type: in vivo; conditions: daily HypoxyStat initiated at P50
# T1 sequence (P69905 2-142 limits assumed): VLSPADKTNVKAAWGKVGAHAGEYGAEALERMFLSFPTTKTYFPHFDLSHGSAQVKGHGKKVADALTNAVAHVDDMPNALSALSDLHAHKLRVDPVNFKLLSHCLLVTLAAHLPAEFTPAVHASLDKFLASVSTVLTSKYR
# T1 sequence (P68871 2-147 partner limits assumed): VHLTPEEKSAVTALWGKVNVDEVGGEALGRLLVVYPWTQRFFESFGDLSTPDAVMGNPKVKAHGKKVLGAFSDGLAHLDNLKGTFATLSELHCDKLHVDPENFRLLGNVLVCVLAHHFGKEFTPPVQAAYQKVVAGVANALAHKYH
structure (smiles),measurement,setting,value
O=Cc1ccccc1C(=O)N1CCCC[C@H]1COc1cccc(O)c1C=O [HypoxyStat],"off-target inhibition or binding, InVEST panel",[1],All tests were negative
same,p50,"[2]; human red blood cells incubated 1 h with 10 mM compound, vehicle ~28 mmHg",5.6 mmHg
same,decrease in p50,"[2]; human red blood cells incubated with compound, vs vehicle",~ 82%
same,"reversal of body weight loss, impaired behavior and neurological lesions in late-stage KO mice",Ndufs4 KO mouse,reversed multiple other disease presentations
same,lifespan of late-stage Ndufs4 KO mice,Ndufs4 KO mouse; p < 0.05 Mantel-Cox,significantly extended the lifespan
